From patent US5439932A, “Substituted amine derivatives having anti-hyperlipemia activity” (Banyu Pharmaceutical Co., Ltd., priority 1990, dated 1995) come the findings set out here.

Counter-ions that a name gives are not always drawn.

T1 sequence (Q14534 whole entry): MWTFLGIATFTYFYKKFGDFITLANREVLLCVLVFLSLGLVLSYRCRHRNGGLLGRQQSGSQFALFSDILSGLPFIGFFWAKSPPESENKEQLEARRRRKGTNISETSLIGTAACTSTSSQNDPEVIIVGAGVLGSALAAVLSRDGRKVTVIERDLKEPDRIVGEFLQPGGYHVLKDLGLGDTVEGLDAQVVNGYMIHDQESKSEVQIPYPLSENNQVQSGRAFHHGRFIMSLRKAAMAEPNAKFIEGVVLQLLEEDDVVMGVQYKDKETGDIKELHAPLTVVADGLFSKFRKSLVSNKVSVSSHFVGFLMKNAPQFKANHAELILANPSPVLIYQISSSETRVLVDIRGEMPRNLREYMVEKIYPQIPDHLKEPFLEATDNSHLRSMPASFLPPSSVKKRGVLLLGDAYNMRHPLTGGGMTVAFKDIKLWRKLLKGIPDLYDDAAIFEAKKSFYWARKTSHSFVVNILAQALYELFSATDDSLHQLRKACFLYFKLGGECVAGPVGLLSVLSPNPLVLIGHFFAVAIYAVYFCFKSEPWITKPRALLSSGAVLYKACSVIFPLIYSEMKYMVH

The assay concerns the target T1, Human squalene epoxidase (Homo sapiens, UniProt Q14534).
T1 construct: endogenous in cells; host or cells: Hep-G2 (human hepatoma) cells, microsomes solubilized with Triton X-100
As to the kind of experiment: Human squalene epoxidase inhibition action. In kind it is biochemical. The conditions noted are these: solubilized squalene epoxidase fraction from human hepatoma (Hep-G2) cells; 8 μM 3H-squalene; 37° C., 60 minutes; pH 7.5; read-out: 50% inhibitory concentration (IC50). The procedure:
Squalene epoxidase inhibition action (1) Preparation of squalene epoxidase Human squalene epoxidase is prepared based on the method disclosed in J. Biol. Chem. 245, 1670 (1970) and ibid. 250, 1572 (1975). Namely, human hepatoma (Hep-G2) cells are cultured at 37° C. under 5% carbon dioxide-mixed air. After completion of the culture the cells are scraped and recovered by centrifugation. The cells are suspended (1×10^8 cells/ml) in a 0.1M Tris-HCl buffer (pH 7.5), the suspension is homogenized and centrifuged at 9,750×g for 10 minutes, and the sediment is washed with a 0.1M Tris-HCl buffer (pH 7.5) and centrifuged at 105,000×g for 1 hour. […] After this solubilization treatment, the solution is diluted with 1 mM EDTA and 1 mM dithiothreitol so that the Triton X-100 concentration becomes 0.125%, and then centrifuged at 105,000×g for 1 hour. The resulting supernatant is used in the later test as a squalene epoxidase fraction. (2) Method for measurement of squalene epoxidase activity Measurement of human squalene epoxidase activity is carried out based on the method disclosed in J. Biol. Chem. 245, 1670 (1970). Namely, […] of a dimethylsulfoxide solution of a test drug is added to a solution consisting of 0.2 ml of the squalene epoxidase fraction prepared in (1) [Protein amount 0.4 mg, 0.1% Triton X-100, […] buffer (pH 7.5)], 100 μM FAD, 1 mM NADPH, 1 mM EDTA and 8 μM ^3 H-squalene-Tween 80 suspension to make the total volume 0.3 ml, and the mixture is subjected to shaking reaction at 37° C. for 60 minutes. 0.3 ml of a 10% potassium hydroxide-methanol solution is added to stop the reaction, and the mixture is heated at 75° C. for 1 hour. Then, after extraction of the nonsaponified substances, the extract is concentrated to dryness in a stream of nitrogen. […] The position of the formed ^3 H-squalene-2,3-epoxide on TLC is ascertained using as a marker ergosterol acetate and the ^3 H-squalene-2,3-epoxidepart of TLC is cut out. The TLC piece is immersed in a toluene series scintillator and measurement is carried out using a liquid scintillation counter. By this, 50% inhibitory concentrations (IC50 values) of compounds of the invention on squalene epoxidase are determined, and the results are shown in the following table.
On to `CCN(C/C=C/C#CC(C)(C)OC)Cc1cccc(COC/C=C/c2ccsc2)c1` [Example 7, (E,E)-N-ethyl-N-7(6-methoxy-6-methyl-2-hepten-4-ynyl)-3-3-(3-thienyl)-2-propenyloxymethyl]benzylamine hydrochloride], for which the IC50 stood at 0.3 nM.
With `CCN(C/C=C/C#CC(C)(C)OC)Cc1ccc(COC/C=C/c2ccsc2)o1` [Example 30, (E,E)-N-ethyl-N-(6-methoxy-6-methyl-2-hepten-4-ynyl)-5-[3-(3-thienyl)-2-propenyloxymethyl]-2-furylmethylamine hydrochloride], the IC50 worked out at 0.8 nM.
`CCN(C/C=C/C#CC(C)(C)CC)CCOCCOc1cccc(-c2ccsc2)c1` [Example 35, (E)-N-ethyl-N-(6,6-dimethyl-2-octen-4-ynyl)-2-[2-[3-(3-thienyl)phenoxy]ethoxy]ethylamine hydrochloride]: the IC50 amounted to 0.4 nM.
`CN(C/C=C/C#CC(C)(C)C)Cc1ccc(COC/C=C/c2ccsc2)o1` [Example 38, (E,E)-N-methyl-N-(6,6-dimethyl-2-hepten-4-ynyl)-5-[3-(3-thienyl)-2-propenyloxymethyl]-2-furylmethylamine]: the IC50 is 0.2 nM.
For `CCN(CC#C/C=C/C(C)(C)C)Cc1ccc(COC/C=C/c2ccsc2)o1` [Example 46, (E,E)-N-ethyl-N-(6,6-dimethyl-4-hepten-2-ynyl)-5-[3-(3-thienyl)-2-propenyloxymethyl]-2-furylmethylamine] the value was 0.4 nM; for `CCN(CC#CC#CC(C)(C)OC)Cc1ccc(/C=C/COCc2ccsc2)o1` [Example 48, (E)-N-ethyl-N-(6-methoxy-6-methyl-2,4-heptadiynyl)-5-[3-(3-thienylmethoxy)-1-propenyl]-2-furylmethylamine], 0.5 nM.
